Assay results as given in PMC6925188, “PBRM1 acts as a p53 lysine-acetylation reader to suppress renal tumor growth” (Nature Communications, 2019).

Assays:
ACHN cells = experiment: Cell cycle analysis, ACHN shRNA knockdown cells; format: cell-based; set-up: Sub-G1: unit not given here; details: 50 μM
Experimental: Lysates were analyzed via immunoblots. f, g, h. ACHN control, p53 and p21 shRNA knockdown cells were harvested for […]
Representative data is shown i n g. […] Source data are provided as a Source

[1] = tested on: ACHN, Caki-1 and Ren-01 cells; experiment: Immunoblot of p53 targets, kidney cancer cells with PBRM1 shRNA knockdown; format: cell-based; details: 50 μM etoposide, Caki-1 and Ren-01
Experimental: Lysates were analyzed by immunoblots. c RCC4 cells with or without p53 KO were transfected with vector or Flag-PBRM1 at the indicated amounts. […] Cells were harvested for RT-qPCR (g) or ChIP followed by qPCR (h). […] Representative data is shown in i. Quantification of cell cycle phase is shown in j. Source data are provided as a Source Data file.
After washing with ice-cold PBS, cells were scraped on ice and centrifuged at 10,000 × g for 1 min at 4 °C. For immunoblot analysis, cell pellets were lysed in 1% SDS containing a protease inhibitor cocktail followed by sonication with a FB50 sonic dismembrator (Fisher Scientific) at 20% amplitude for 15 s twice. After centrifuging for 10 min at 14,000 × g, the supernatants were combined with 5X SDS loading buffer (5% mercaptoethanol, 0.05% Bromophenol blue, 30% glycerol, 10% SDS, 250 mM Tris-HCl (pH 6.8)), boiled for 5 min and used in SDS-PAGE. After standard western blot procedures, the blots were developed using the ImageQuant LAS 4000 (GE healthcare Life Sciences) or ChemiDoc MP Imaging System (Bio-rad) with HyGLO™ Chemiluminescent HRP Detection Reagent (E2500, Denville Scientific) or Immobilon™ Western Chemiluminescent HRP Substrate (WBKLS0500, Millipore). […]
the indicated times. Lysates were analyzed via immunoblots. b. […]
were analyzed by immunoblots. c. […]
Lysates were analyzed via immunoblots. e. […]
Lysates were analyzed via immunoblots. f, g, h. […]

In the case of `COc1cc([C@@H]2c3cc4c(cc3[C@@H](O[C@@H]3O[C@@H]5CO[C@@H](C)O[C@H]5[C@H](O)[C@H]3O)[C@H]3COC(=O)[C@H]23)OCO4)cc(OC)c1O` [Etoposide], the G0/G1 (ACHN cells; ACHN-sh-PBRM1#1, assay 1) is reported as 10.9, the G2/M (ACHN cells; ACHN-sh-PBRM1#1, assay 1) is reported as 66.9 and the S (ACHN cells; ACHN-sh-PBRM1#1, assay 1) is reported as 15.8. For the same compound, the Sub-G1 (ACHN cells; ACHN-sh-PBRM1#1, assay 1) was 5.5, the G0/G1 (ACHN cells; ACHN-sh-PBRM1#1, assay 2) was 15.3 and the G2/M (ACHN cells; ACHN-sh-PBRM1#1, assay 2) was 36.8. For the same compound, the S (ACHN cells; ACHN-sh-PBRM1#1, assay 2) was 33.9, the Sub-G1 (ACHN cells; ACHN-sh-PBRM1#1, assay 2) was 12.3 and the G0/G1 (ACHN cells; ACHN-sh-PBRM1#1, assay 3) was 16.9. It also gave a G2/M (ACHN cells; ACHN-sh-PBRM1#1, assay 3) of 39.4, an S (ACHN cells; ACHN-sh-PBRM1#1, assay 3) of 35.3 and a Sub-G1 (ACHN cells; ACHN-sh-PBRM1#1, assay 3) of 6.8. The G0/G1 (ACHN cells; ACHN-sh-PBRM1#2, assay 1) was 50.7, the G2/M (ACHN cells; ACHN-sh-PBRM1#2, assay 1) was 29.4 and the S (ACHN cells; ACHN-sh-PBRM1#2, assay 1) was 17.3. It also gave a Sub-G1 (ACHN cells; ACHN-sh-PBRM1#2, assay 1) of 1.2, a G0/G1 (ACHN cells; ACHN-sh-PBRM1#2, assay 2) of 45.9 and a G2/M (ACHN cells; ACHN-sh-PBRM1#2, assay 2) of 20.7. For the same compound, the S (ACHN cells; ACHN-sh-PBRM1#2, assay 2) was 26.7, the Sub-G1 (ACHN cells; ACHN-sh-PBRM1#2, assay 2) was 5 and the G0/G1 (ACHN cells; ACHN-sh-PBRM1#2, assay 3) was 48.7. For the same compound, the G2/M (ACHN cells; ACHN-sh-PBRM1#2, assay 3) was 22.6, the S (ACHN cells; ACHN-sh-PBRM1#2, assay 3) was 24.8 and the Sub-G1 (ACHN cells; ACHN-sh-PBRM1#2, assay 3) was 1.6. For the same compound, the G0/G1 (ACHN cells; ACHN-sh-SCR, assay 1) was 54.8, the G2/M (ACHN cells; ACHN-sh-SCR, assay 1) was 26.5 and the S (ACHN cells; ACHN-sh-SCR, assay 1) was 16.1. The Sub-G1 (ACHN cells; ACHN-sh-SCR, assay 1) was 1.5, the G0/G1 (ACHN cells; ACHN-sh-SCR, assay 2) was 51.3 and the G2/M (ACHN cells; ACHN-sh-SCR, assay 2) was 21.3. It also gave an S (ACHN cells; ACHN-sh-SCR, assay 2) of 25.2, a Sub-G1 (ACHN cells; ACHN-sh-SCR, assay 2) of 1.4 and a G0/G1 (ACHN cells; ACHN-sh-SCR, assay 3) of 43.6. For the same compound, the G2/M (ACHN cells; ACHN-sh-SCR, assay 3) was 27, the S (ACHN cells; ACHN-sh-SCR, assay 3) was 25.3 and the Sub-G1 (ACHN cells; ACHN-sh-SCR, assay 3) was 2.1. It also gave a G0/G1 (ACHN cells; ACHN-sh-p21#1, assay 1) of 40.5, a G2/M (ACHN cells; ACHN-sh-p21#1, assay 1) of 38.3 and an S (ACHN cells; ACHN-sh-p21#1, assay 1) of 18.7. For the same compound, the Sub-G1 (ACHN cells; ACHN-sh-p21#1, assay 1) was 1.3, the G0/G1 (ACHN cells; ACHN-sh-p21#1, assay 2) was 47.7 and the G2/M (ACHN cells; ACHN-sh-p21#1, assay 2) was 23.1. For the same compound, the S (ACHN cells; ACHN-sh-p21#1, assay 2) was 27.2, the Sub-G1 (ACHN cells; ACHN-sh-p21#1, assay 2) was 1 and the G0/G1 (ACHN cells; ACHN-sh-p21#1, assay 3) was 48.6. The G2/M (ACHN cells; ACHN-sh-p21#1, assay 3) was 22.6, the S (ACHN cells; ACHN-sh-p21#1, assay 3) was 26 and the Sub-G1 (ACHN cells; ACHN-sh-p21#1, assay 3) was 0.8. The G0/G1 (ACHN cells; ACHN-sh-p21#2, assay 1) was 14.3, the G2/M (ACHN cells; ACHN-sh-p21#2, assay 1) was 65.7 and the S (ACHN cells; ACHN-sh-p21#2, assay 1) was 15.1. For the same compound, the Sub-G1 (ACHN cells; ACHN-sh-p21#2, assay 1) was 4, the G0/G1 (ACHN cells; ACHN-sh-p21#2, assay 2) was 11.9 and the G2/M (ACHN cells; ACHN-sh-p21#2, assay 2) was 48.4. It also gave an S (ACHN cells; ACHN-sh-p21#2, assay 2) of 31.1, a Sub-G1 (ACHN cells; ACHN-sh-p21#2, assay 2) of 6.9 and a G0/G1 (ACHN cells; ACHN-sh-p21#2, assay 3) of 14.7. For the same compound, the G2/M (ACHN cells; ACHN-sh-p21#2, assay 3) was 42.4, the S (ACHN cells; ACHN-sh-p21#2, assay 3) was 35.8 and the Sub-G1 (ACHN cells; ACHN-sh-p21#2, assay 3) was 5.3. For the same compound, the G0/G1 (ACHN cells; ACHN-sh-p53, assay 1) was 6.3, the G2/M (ACHN cells; ACHN-sh-p53, assay 1) was 68.3 and the S (ACHN cells; ACHN-sh-p53, assay 1) was 16.5. For the same compound, the Sub-G1 (ACHN cells; ACHN-sh-p53, assay 1) was 6.2, the G0/G1 (ACHN cells; ACHN-sh-p53, assay 2) was 11.6 and the G2/M (ACHN cells; ACHN-sh-p53, assay 2) was 30. For the same compound, the S (ACHN cells; ACHN-sh-p53, assay 2) was 34.2, the Sub-G1 (ACHN cells; ACHN-sh-p53, assay 2) was 20.3 and the G0/G1 (ACHN cells; ACHN-sh-p53, assay 3) was 10.6. The G2/M (ACHN cells; ACHN-sh-p53, assay 3) was 39, the S (ACHN cells; ACHN-sh-p53, assay 3) was 34.6 and the Sub-G1 (ACHN cells; ACHN-sh-p53, assay 3) was 11.3. The “p21 induction by p53 with PBRM1 knockdown” value [1] was “significantly reduced p21 induction”.
